Results reported in patent US11453642B2, “Oxygenated amino- or ammonium-containing sulfonic acid, phosphonic acid and carboxylic acid derivatives and their medical use” (GRI BIO, INC., priority 2011, dated 2022).
Marks after values point to notes of the source that are not given here.

Columns and labels:
[1] = system: local lymph node reaction; assay: Local lymph node weight and cell count after TDI challenge; assay type: in vivo, mice; conditions: topical 1a 2% or 6%, diflorasone 0.1% and 0.5%
Protocol: Directly after sacrifice, the ear draining lymph node (Ln. auricularis) was prepared and excised. Organ weight was determined by means of an analytical balance (Kern, Balingen, Germany). Single cell suspensions were prepared by means of a glass potter (VWR, Darmstadt, Germany) and cells were counted with a hemocytometer (Neubauer, VWR, Germany).
One of the most undesirable side-effects of corticosteroid administration is immunosuppression, which leads to the inability to effectively address parasitic infection, wound healing and tumor growth. In the current study, the local lymph node reaction after TDI challenge (lymph node weight and cell number) was determined to assess the response of immune organs.

[2] = system: allergic contact dermatitis response in mice; assay: Allergic contact dermatitis (TDI) model in mice, mouse ear swelling test; assay type: in vivo
Protocol: The anti-inflammatory and anti-allergic effects of compounds 1a and 1c were assessed in a mouse model of allergic contact dermatitis, a response driven primarily by T helper type 2 (Th2) cells. […] In this model, an allergic dermatitis response is obtained by sensitizing mice to TDI and subsequently challenging them with antigen by topical administration onto the ears. A quantitative assessment of anti-inflammatory and anti-allergic effects of topically or orally administered test compounds is possible by measuring the resulting ear swelling. The advantages of the allergic contact dermatitis model (Zöllner et al., Bioessays 26:693-6 (2004)) are reproducibility and reliability (>90% of BALB/c mice respond to sensitization), a short induction protocol, quantitative assessment by measuring ear thickness, atopic dermatitis-like skin lesions can be induced, and clinically relevant pharmaceuticals, such as corticosteroids, calcineurin-inhibitors and PDE4-inhibitors, are effective in this model.
Female BALB/c-mice were obtained from Charles River (Sulzfeld, Germany) at age 8 weeks. All animals were housed in groups of eight per cage at 22° C. with a 12 h light/dark-cycle, Water and a standard diet (Altromin, Lage/Lippe, Germany) were available ad libitum. All animals were acclimatized for one week before experimental procedures were commenced.
Experimental procedures for BALB/c mice housing, TDI sensitization and challenge, and measurement of ear thickness were performed as previously described (Baumer et al., J Pharm Pharmacol, 55:1107-1114 (2003)) with the following modifications. For active sensitization, 100 μL of 5% (w/v) TDI was administered to the shaved and stripped abdominal epidermis on day one, and for the next three consecutive days, 50 μL of 5% (My) TDI was applied. The allergic reaction was boosted 21 days later by application of 50 μL of 0.5% (w/v) TDI. For the examination of test compound effects, the left ears were used for the TDI challenge (20 μL of 0.5% in acetone) and ear thickness measured 3 h before and 24 h after challenge.
Group size was n=7 mice unless otherwise stated. Test compounds were freshly prepared before administration.
Administration time: to determine optimal time for administration treatment groups were treated orally by gavage with 100 mg/kg of compound 1a or 1c (suspended in 0.5% tylose, 10 mL/kg) 1, 4 or 16 h before topical TDI challenge. One group was treated with 100 mg/kg miltefosine orally, 16 h before challenge (based on available data for optimal administration time for miltefosine) and vehicle treated mice received tylose (10 mL/kg) orally, 4 h before challenge.
Dose-response: two groups of mice were treated orally with compound 1a at 25 mg/kg or 100 mg/kg suspended in 0.5% tylose, 4 h before topical TDI challenge. Vehicle treated mice received 0.5% tylose orally 4 h before challenge. As a positive control, dexamethasone was administered in saline solution at 1 mg/kg or 3 mg/kg, 2 h and 30 min before challenge and 1 h after challenge. The dose and dosing scheme for dexamethasone was based on previous experience showing a maximal effect in this model.
Compound 1a was administered to two groups of mice topically in 20 μl of a 2% or 6% solution in propyleneglycol. The suspension was heated to 60° C. and mixed using a thermomixer (Eppendorf) until it became clear. The solution was applied, 2 h before topical TDI challenge by administration of 10 μl onto each of the inner and outer surfaces of the left ears. A vehicle group (17=5) was treated with propyleneglycol. As a positive control, diflorasone, diacetate was administered at 0.01% (low dose) and 0.05% (high dose) in 20 μl acetone, 2 h before challenge. A basal control group was left untreated.
Mean and standard error of the mean (SEM) were calculated from individual ear edema values. […]

[3] = system: allergic contact dermatitis response in mice; assay: as above; assay type: in vivo; conditions: topical, 0.5% in 20 μl acetone, 2 h before challenge

CC(=O)OCC(=O)[C@@]1(OC(C)=O)[C@@H](C)C[C@H]2[C@@H]3C[C@H](F)C4=CC(=O)C=C[C@]4(C)[C@@]3(F)[C@@H](O)C[C@@]21C [Diflorasone, diflorasone diacetate, reference compound]
local lymph node reaction (lymph node weight and cell number) [1]: completely inhibiting the increase | effect on ear swelling (in words) ([2]; topical positive control, ear thickness reduced below level of untreated mice): completely eliminated ear swelling | Inhibition of mouse ear swelling ([2]; topical, 0.1% in 20 μl acetone, 2 h before challenge): 101.1*** % | Inhibition of mouse ear swelling [3]: 110.8*** %
